Assay results: patent publication US20250052016A1, “ARTIFICIAL TURF COMPRISING ANTIMICROBIAL POLYURETHANE BACKING” (Synthetic Turf Resources (STR), priority 2022, published 2025)

Columns and labels:
E. coli = details: added in the polyurethane reaction mixture in amounts of 0.1 wt % to 0.5 wt %
S. aureus = details: added in the polyurethane reaction mixture in amounts of 0.1 wt % to 0.5 wt %

With zinc pyrithione the “effectiveness against E. coli” value (E. coli) was “particularly effective” and the “effectiveness against S. aureus” value (S. aureus) was “particularly effective”.
